Where only a bound is given, the exact number is not on record here.

The values that follow come from patent publication US11059795B2, “Androgen receptor modulators and methods for their use” (ESSA Pharma, Inc., priority 2018, dated 2021).

Series [1] can be described thus: Microsomal stability assay, mouse liver microsomes. The series is classed as in vitro ADME. The following applies: for microsomal CLint at 1 μM: mouse, liver microsomes, pH 7.4, mouse liver microsomes, 1 μM compound, 0.5 mg/mL protein, 37° C., read-out: MLM +30/− NADPH: Clint (μL/min/mg protein); for half-life at 1 μM: pH 7.4, mouse liver microsomes, read-out: Liver microsome T½ (min) Mouse. In outline: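 Compound at 1 μM was incubated at 37° C with 0.5 mg/mL liver microsomes and 1 mM NADPH and/or 1 mM UDPGA (with alamethicin) in 100 mM potassium phosphate pH 7.4, 3 mM MgCl2. Samples were taken at 0, 15, 30 and 60 min and measured by LC/MS/MS. t½ came from compound loss relative to 0 min, and Clint was scaled with 45 mg microsomal protein/g liver.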
A general note: Liver microsomes are a subcellular fraction often used to study metabolism.

A short description of series [2]: Microsomal stability assay, dog liver microsomes. The class given is in vitro ADME. The following applies: pH 7.4, read-out: Liver microsome T½ (min) Dog. How it is done:
(§1) Microsomal stability assay is a widely used in vitro model to characterize the metabolic conversion by phase I enzymes, such as cytochrome P450 (CYP) enzymes. Since metabolism is known to be highly variable in different species, microsomal stability assay is commonly run in multiple species. Metabolic stability of testing compound can be evaluated using human, rat, mouse, or other animal liver or intestine microsomes to predict intrinsic clearance.
(§2) The assay was carried out in 96-well microtiter plates at 37° C. Reaction mixtures (25 μL) contained a final concentration of 1 μM test compound, 0.5 mg/mL liver microsomes protein, and 1 mM NADPH and/or 1 mM UDPGA (with alamethicin) in 100 mM potassium phosphate, pH 7.4 buffer with 3 mM MgCl2. The incubation was done with N=1, but duplicate incubation at each time point can be prepared if necessary. At each of the time points (for example, 0, 15, 30, and 60 minutes), 150 μL of quench solution (100% acetonitrile with 0.1% formic acid) with internal standard was transferred to each well. Besides the zero minute controls, mixtures containing the same components except the NADPH can also be prepared as the negative control. Verapamil was included as a positive control to verify assay performance. Plates were sealed, vortexed, and centrifuged at 4° C. for 15 minutes at 4000 rpm. The supernatant is transferred to fresh plates for LC/MS/MS analysis.
(§3) Summarized conditions: [Compound]=[…], [LM]=0.5 mg/mL, [NADPH]=1 mM and/or [UDPGA]=1 mM, Buffer=100 mM Potassium Phosphate, pH 7.4 with 3 mM MgCl2, Time=0, 15, 30, and 60 min, and Temperature=37° C.
(§4) All samples were analyzed on LC/MS/MS using an AB Sciex API 4000 instrument, coupled to a Shimadzu LC-20AD LC Pump system. Analytical samples were separated using a Waters Atlantis T3 dC18 reverse phase HPLC column (20 mm×2.1 mm) at a flow rate of 0.5 mL/min. The mobile phase consisted of 0.1% formic acid in water (solvent A) and 0.1% formic acid in 100% acetonitrile (solvent B).
(§5) The extent of metabolism is calculated as the disappearance of the test compound, compared to the 0-min time incubation. Initial rates are calculated for the compound concentration and used to determine half-life (t½) values and subsequently, the intrinsic clearance (Clint). Clint=(0.693)(1/t½ (min))(g of liver/kg of body weight)(mL incubation/mg of microsomal protein)(45 mg of microsomal protein/g of liver weight)

Series [3] can be described thus: Hepatocyte stability assay, rat hepatocytes. The series is classed as in vitro ADME. The following applies: cryopreserved hepatocytes, read-out: Hepatocytes T½ (min) Rat.
Text: The […] of in vitro intrinsic clearance (Clint) for drug candidates in the early discovery stage is common practice in the pharmaceutical industry. The Clint values of drug candidates can help to confirm whether metabolism is the main clearance pathway when it is compared with the total body clearance in vivo. Hepatocytes are among the routinely used in vitro systems for measuring clearance. Hepatocytes have been reported to retain most of the phase I and phase II metabolic activities, and therefore, it is a useful tool to estimate the intrinsic clearance for potential drug candidates.
Metabolic stability of testing compound were be evaluated using human and mouse hepatocytes and can also be use rat, mouse, or other animal hepatocytes to predict intrinsic clearance. Cryopreserved hepatocytes were removed from the liquid nitrogen tank and thawed in a 37° C. water bath. As soon as the cells pulled away from the vial wall, they were decanted into 48 ml of warm HT medium. Cells were centrifuged for four minutes at 420 rpm (50 g). After removing the supernatant, pellet was re-suspended in warm DMEM medium. Cell density was counted by a hemacytometer.
The assay was carried out in 96-well microtiter plates. Compounds were incubated for 0, 60, 120, and 180 minutes at 37° C. with hepatocytes. Reaction mixtures (50 μL) contained a final concentration of 1 μM test compound, 0.5 million cells/mL hepatocytes in the DMEM medium. At each of the time points (for example, 0, 1, 2, and 3 hours), 200 μL of quench solution (100% acetonitrile with 0.1% formic acid) with internal standard was transferred to each well. Midazolam was included as a positive control to verify assay performance. Plates were sealed and centrifuged at 4° C. for 15 minutes at 4000 rpm. The supernatant is transferred to fresh plates for LC/MS/MS analysis.
Summarized conditions (customizable): [Compound]=[…], Positive control: midazolam and/or naloxone, [Hepatocyte]=0.5 million cells/Ml, time=0, 60, 120, and 180 min, t=37° C.
as §4
The extent of metabolism was calculated as the disappearance of the test compound, compared to the 0-min control reaction incubations. Initial rates were calculated for the compound concentration and used to determine t½ values and subsequently, the intrinsic clearance, Clint. Clint=(0.693)(1/t½(min))(mL incubation/million cells)

Series [4] in a line: Microsomal stability assay, monkey liver microsomes. The following applies: pH 7.4, read-out: Liver microsome T½ (min) Monkey. The series is classed as in vitro ADME. The protocol: as §1, §2, §3, §4, §5
Series [5] has as its target T1, LBD of progesterone receptor-beta (PRβ) fused to DBD of GAL4 (Homo sapiens, UniProt P06401).
T1 sequence (P06401 679-913 limits assumed): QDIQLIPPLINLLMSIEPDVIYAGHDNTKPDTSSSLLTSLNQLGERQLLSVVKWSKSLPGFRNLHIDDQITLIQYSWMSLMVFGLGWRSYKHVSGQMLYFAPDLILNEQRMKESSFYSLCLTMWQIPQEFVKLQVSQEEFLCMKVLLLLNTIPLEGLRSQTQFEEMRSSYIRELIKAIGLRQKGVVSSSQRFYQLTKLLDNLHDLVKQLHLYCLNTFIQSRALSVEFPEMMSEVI
The series is described as follows: LBD-expressing reporter assay (GeneBLAzer), PR LBD. The series is classed as cell-based. To be noted: inhibition of maximal activity attained with agonist; read-out: Steroid Receptor LBD IC50 (μM) PR. The text has this: This assay uses cells that stably express a chimera fusion protein comprising the LBD of a steroid hormone receptor fused to the DNA-binding domain (DBD) of GAL4 along with beta-lactamase reporter under transcriptional control of an upstream activator sequence (UAS). When agonist binds to the LBD of the GAL4 (DBD)-steroid hormone (LBD) chimera fusion protein, the protein binds to the UAS, resulting in expression of beta-lactamase. LBDs of androgen receptor (AR), progesterone receptor-beta (PRβ), glucocorticoid receptor (GR), estrogen receptor-α (ERα), and estrogen receptor-β (ERβ) were tested and IC50s calculated for inhibiting maximal activity attained with agonist.
On the technique in general: Reporter assays use an easily measured gene product as a stand-in for the process of interest.

A short description of series [6]: Hepatocyte stability assay, mouse hepatocytes. The class given is in vitro ADME. The following applies: cryopreserved hepatocytes; for half-life at 1 μM: read-out: Hepatocytes T½ (min) Mouse; for hepatocyte CLint at 1 μM: mouse, 1 μM compound, 0.5 million cells/mL, 37° C., read-out: MH +/− NADPH: Clint (μL/min/million cells). The method in brief: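 Cryopreserved rat, human or mouse hepatocytes at 0.5 million cells/mL in DMEM with 1 μM compound, 37° C, sampled at 0, 60, 120 and 180 min and quenched with acetonitrile/formic acid. Parent loss vs 0-min by LC/MS/MS gave t½, and Clint = 0.693/t½ × mL incubation/million cells.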

Series [7] is described as follows: Microsomal stability assay, rat liver microsomes. The series is classed as in vitro ADME. The following applies: pH 7.4, read-out: Liver microsome T½ (min) Rat. The protocol: as §1, §2, §3, §4, §5

Turning to `CC(C)(c1ccc(OCc2coc(NS(C)(=O)=O)n2)cc1)c1cc(Cl)c(OCCCl)c(Cl)c1` [Compound A38, N-(4-((4-(2-(3,5-dichloro-4-(2-chloroethoxy)phenyl)propan-2-yl)phenoxy)methyl)oxazol-2-yl)methanesulfonamide], the microsomal CLint at 1 μM in series [1] is < 12 µL/min/mg. For the same molecule, the half-life at 1 μM in series [1] was > 120 min; in series [2] it was > 120 min; in series [3] it was 56 min; in series [4], > 120 min; in series [6], > 360 min; in series [7], 12 min. The concentration for half-maximal inhibition (IC50) in series [5] worked out at 5.07 µM. Moreover, in series [6], the hepatocyte CLint at 1 μM is < 4 µL/min/1e6 cells.

For `Cc1cnc(NS(C)(=O)=O)nc1COc1ccc(C(C)(C)c2cc(Cl)c(OCCCl)c(C#N)c2)cc1` [Compound A122, N-(4-((4-(2-(3-Chloro-4-(2-chloroethoxy)-5-cyanophenyl)propan-2-yl)phenoxy)methyl)-5-methylpyrimidin-2-yl)methanesulfonamide], the microsomal CLint at 1 μM in series [1] lay in the range of 12 to 48 µL/min/mg. For the same molecule, in series [6], the hepatocyte CLint at 1 μM fell in the range of 4 to 18 µL/min/1e6 cells.

Consider `CC(C)(c1ccc(OCc2nc(S(C)(=O)=O)cs2)cc1)c1cc(Cl)c(OCCCl)c(C#N)c1` [Compound A136, 3-Chloro-2-(2-chloroethoxy)-5-(2-(4-((4-(methylsulfonyl)thiazol-2-yl)methoxy)phenyl)propan-2-yl)benzonitrile], for which, in series [1], the microsomal CLint at 1 μM is 12 to 48 µL/min/mg. In series [6], the hepatocyte CLint at 1 μM fell in the range of 4 to 18 µL/min/1e6 cells.

`CC(C)(c1ccc(OCc2ccnc(NS(C)(=O)=O)n2)cc1)c1cc(Cl)c(OCCCl)c(Cl)c1` [Compound A74, N-(4-((4-(2-(3,5-dichloro-4-(2-chloroethoxy)phenyl)propan-2-yl)phenoxy)methyl)pyrimidin-2-yl)methanesulfonamide]: the microsomal CLint at 1 μM in series [1] was < 12 µL/min/mg. The half-life at 1 μM in series [1] is > 120 min; in series [2], > 120 min; in series [3], > 360 min; in series [4], > 120 min; in series [7], > 120 min. Besides, the half-inhibitory concentration (IC50) in series [5] stood at 5.41 µM.

As to `CC(C)(c1ccc(OC[C@H](O)CNS(C)(=O)=O)cc1)c1cc(Cl)c(OC[C@H](O)CCl)c(Cl)c1` [X, reference compound], in series [5], the IC50 is 4.96 µM. In addition, the half-life at 1 μM in series [6] was determined as 33 min.

Turning to `CC(C)(c1ccc(OCc2ocnc2S(C)(=O)=O)cc1)c1cc(Cl)c(OCCCl)c(C#N)c1` [Compound A28, 3-chloro-2-(2-chloroethoxy)-5-(2-(4-((4-(methylsulfonyl)oxazol-5-yl)methoxy)phenyl)propan-2-yl)benzonitrile], the microsomal CLint at 1 μM in series [1] fell in the range of 12 to 48 µL/min/mg. Also, the half-life at 1 μM is 74 min in series [1]; > 120 min in series [2]; 31 min in series [3]; 73 min in series [4]; 86 min in series [6]; 23 min in series [7]. Besides, the IC50 in series [5] worked out at 0.93 µM. Also, the hepatocyte CLint at 1 μM in series [6] fell in the range of 4 to 18 µL/min/1e6 cells.

`CCS(=O)(=O)Nc1nc(COc2ccc(C(C)(C)c3cc(Cl)c(OCCCl)c(C#N)c3)cc2)co1` [Compound A126]: the microsomal CLint at 1 μM in series [1] was < 12 µL/min/mg. Besides, in series [6], the hepatocyte CLint at 1 μM is < 4 µL/min/1e6 cells.

Regarding `C[C@H](Oc1ccc(C(C)(C)c2cc(Cl)c(OCCCl)c(C#N)c2)cc1)c1ccnc(NS(C)(=O)=O)n1` (single isomer, unassigned) [Compound A170], the microsomal CLint at 1 μM in series [1] is < 12 µL/min/mg. Moreover, the hepatocyte CLint at 1 μM in series [6] is < 4 µL/min/1e6 cells.

Consider `CC(C)(c1ccc(OCc2ccnc(NS(C)(=O)=O)n2)cc1)c1cc(Cl)c(OCCCl)c(C#N)c1` [Compound A109, N-(4-((4-(2-(3-chloro-4-(2-chloroethoxy)-5-cyanophenyl)propan-2-yl)phenoxy)methyl)pyrimidin-2-yl)methanesulfonamide], for which the microsomal CLint at 1 μM in series [1] was < 12 µL/min/mg. The half-life at 1 μM is > 120 min in series [1]; > 120 min in series [2]; > 360 min in series [3]; > 120 min in series [4]; > 360 min in series [6]; > 120 min in series [7]. The IC50 in series [5] turned out to be 5.61 µM. The hepatocyte CLint at 1 μM in series [6] was < 4 µL/min/1e6 cells.

In the case of `CC(C)(c1ccc(OCc2ncc(S(C)(=O)=O)s2)cc1)c1cc(Cl)c(OCCCl)c(C#N)c1` [Compound A93, 3-chloro-2-(2-chloroethoxy)-5-(2-(4-((5-(methylsulfonyl)thiazol-2-yl)methoxy)phenyl)propan-2-yl)benzonitrile], in series [1], the microsomal CLint at 1 μM was < 12 µL/min/mg. Further, the half-life at 1 μM was > 120 min in series [1]; > 120 min in series [2]; 94 min in series [3]; 101 min in series [4]; > 360 min in series [6]; 83 min in series [7]. Besides, in series [5], the IC50 came to 5.04 µM. Besides, the hepatocyte CLint at 1 μM in series [6] is < 4 µL/min/1e6 cells.

Take `CCS(=O)(=O)Nc1nccc(COc2ccc(C(C)(C)c3cc(Cl)c(OCCCl)c(C#N)c3)cc2)n1` [Compound A131]: the microsomal CLint at 1 μM in series [1] is < 12 µL/min/mg. Moreover, in series [6], the hepatocyte CLint at 1 μM was < 4 µL/min/1e6 cells.

By IC50 is commonly meant the midpoint of a concentration-inhibition curve.
